Experimental data: US10913738B2 (BRISTOL-MYERS SQUIBB COMPANY, priority 2017, dated 2021)
Read-outs that look alike come from different tables or passages of the source.

Legend:
[1] = molecular target: T1, His-GST-TVMV-hRIPK1(1-324) (Homo sapiens, UniProt Q13546); assay: RIPK1 HTRF Binding Assay
T1 construct: The coding region of human RIPK1(1-324) flanked by NdeI site at 5′ end; made in house; host or cells: Spodoptera frugiperda (Sf9) insect cells, baculovirus
T1 sequence (Q13546 1-324): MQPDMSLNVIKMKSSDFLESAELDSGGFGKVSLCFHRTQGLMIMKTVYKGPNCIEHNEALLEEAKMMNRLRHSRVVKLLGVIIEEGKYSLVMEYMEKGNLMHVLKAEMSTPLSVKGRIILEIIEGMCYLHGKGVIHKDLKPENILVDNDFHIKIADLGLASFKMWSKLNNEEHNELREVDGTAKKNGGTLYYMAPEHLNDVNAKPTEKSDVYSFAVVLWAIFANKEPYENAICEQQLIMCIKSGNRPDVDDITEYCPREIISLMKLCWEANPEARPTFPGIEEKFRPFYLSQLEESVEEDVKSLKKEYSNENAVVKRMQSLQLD

[2] = tested on: MLKL phosphorylation in HT29-L23 human colorectal adenocarcinoma cells; assay: MLKL Phosphorylation High-Content Assay; assay type: cell-based; conditions: Homo sapiens
Method in brief: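 Cells incubated six hours at 37° C., then phospho-MLKL (S358) immunostained overnight at 4° C. and imaged by high-content microscopy. Phosphorylation quantified as mean circ-ring average intensity ratio; IC50 and Ymax from 4-parameter logistic fits.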

[3] = x marks IC50 class 20-200 nM, read-out: RIPK1 HTRF binding 20-200 nM
[4] = x marks IC50 class 20-200 nM, read-out: pMLKL cell activity 20-200 nM
[5] = x marks IC50 class >200 nM, read-out: pMLKL cell activity >200 nM
[6] = x marks IC50 class <20 nM, read-out: RIPK1 HTRF binding <20 nM
[7] = x marks IC50 class <20 nM, read-out: pMLKL cell activity <20 nM
[8] = x marks IC50 class >200 nM, read-out: RIPK1 HTRF binding >200 nM

Row | SMILES | IC50 [1, 3] [nM] | IC50 [2, 4] [nM] | IC50 [2, 5] [nM] | IC50 [1, 6] [nM] | other results
1 | [2H]C([2H])([2H])Oc1ncc(-c2ccn3nc(N)nc3c2)cc1C(=O)N[C@H](C)c1cc(OC(F)(F)F)ccc1F [Example 285, (R)-5-(2-amino-[1,2,4]triazolo[1,5-a]pyridin-7-yl)-N-(1-(2-fluoro-5-(trifluoromethoxy)phenyl)ethyl)-2-(methoxy-d3)nicotinamide] | 20 to 200 | 20 to 200 |  |  | 
2 | COc1ncc(-c2ccn3nc(N)nc3c2)cc1C(=O)NCc1cccc(OC2CCCC2)c1 [Example 45, 5-{2-Amino-[1,2,4]triazolo[1,5-a]pyridin-7-yl}-N-{[3-(cyclopentyloxy)phenyl]methyl}-2-methoxypyridine-3-carboxamide] | 20 to 200 |  | > 200 |  | 
3 | CCOc1ncc(-c2ccn3nc(N)nc3c2)cc1C(=O)NCc1ccccc1OC1CCCC1 [Example 267, 5-{2-amino-[1,2,4]triazolo[1,5-a]pyridin-7-yl}-N-{[2-(cyclopentyloxy)phenyl]methyl}-2-ethoxypyridine-3-carboxamide] |  | 20 to 200 |  | < 20 | 
4 | Cc1ncc(-c2ccn3nc(N)nc3c2)cc1C(=O)NCc1ccccc1OC(F)(F)C(F)F [Example 244, 5-{2-amino-[1,2,4]triazolo[1,5-a]pyridin-7-yl}-2-methyl-N-{[2-(1,1,2,2-tetrafluoroethoxy)phenyl]methyl}pyridine-3-carboxamide] | 20 to 200 |  | > 200 |  | 
5 | Cc1ccc(-c2ccn3nc(N)nc3c2)nc1C(=O)NCC[C@H](O)c1ccc(Cl)cc1 [Example 401, (S)-6-(2-amino-[1,2,4]triazolo[1,5-a]pyridin-7-yl)-N-(3-(4-chlorophenyl)-3-hydroxypropyl)-3-methylpicolinamide] |  | 20 to 200 |  | < 20 | 
6 | COc1ncc(-c2ccn3nc(N)nc3c2)cc1C(=O)NCCC(O)c1ccc(F)c(F)c1 (stereo not shown) [Example 77, 5-{2-Amino-[1,2,4]triazolo[1,5-a]pyridin-7-yl}-N-[3-(3,4-difluorophenyl)-3-hydroxypropyl]-2-methoxypyridine-3-carboxamide] | 20 to 200 | 20 to 200 |  |  | 
7 | Nc1nc2cc(-c3cncc(C(=O)NCc4ccccc4OCC4CC4)c3)ccn2n1 [Example 42, 5-{2-Amino-[1,2,4]triazolo[1,5-a]pyridin-7-yl}-N-{[2-(cyclopropylmethoxy)phenyl]methyl}pyridine-3-carboxamide] |  |  |  | < 20 | IC50 [2, 7]: < 20 nM
8 | COc1nc(C)c(-c2ccn3nc(N)nc3c2)cc1C(=O)NCc1cc(F)ccc1OCC1CCCC1 [Example 206, 5-{2-amino-[1,2,4]triazolo[1,5-a]pyridin-7-yl}-N-{[2-(cyclopentylmethoxy)-5-fluorophenyl]methyl}-2-methoxy-6-methylpyridine-3-carboxamide] |  | 20 to 200 |  | < 20 | 
9 | Cc1ncc(-c2ccn3nc(N)nc3c2)cc1C(=O)NCc1c(OCC2CC2)ccc(F)c1F [Example 304, 5-(2-amino-[1,2,4]triazolo[1,5-a]pyridin-7-yl)-N-(6-(cyclopropylmethoxy)-2,3-difluorobenzyl)-2-methylnicotinamide] |  | 20 to 200 |  | < 20 | 
10 | CCc1ncc(-c2ccn3nc(N)nc3c2)cc1C(=O)NCc1cc(OC(F)(F)F)ccc1F [Example 86, 5-{2-amino-[1,2,4]triazolo[1,5-a]pyridin-7-yl}-2-ethyl-N-{[2-fluoro-5-(trifluoromethoxy)phenyl]methyl}pyridine-3-carboxamide] |  | 20 to 200 |  | < 20 | 
11 | COc1ncc(-c2ccn3nc(N)nc3c2)cc1C(=O)NCc1cccc(C(F)(F)F)c1 [Example 119, 5-{2-amino-[1,2,4]triazolo[1,5-a]pyridin-7-yl}-2-methoxy-N-{[3-(trifluoromethyl)phenyl]methyl}pyridine-3-carboxamide] | 20 to 200 |  | > 200 |  | 
12 | COc1ncc(-c2ccn3nc(N)nc3c2)cc1C(=O)N1CCCC(Cc2cccc(F)c2)C1 (stereo not shown) [Example 118, 7-(5-{3-[(3-fluorophenyl)methyl]piperidine-1-carbonyl}-6-methoxypyridin-3-yl)-[1,2,4]triazolo[1,5-a]pyridin-2-amine] | 20 to 200 | 20 to 200 |  |  | 
13 | CCOc1ncc(-c2ccn3nc(N)nc3c2)cc1C(=O)NCc1ccccc1OC(F)F [Example 271, 5-{2-amino-[1,2,4]triazolo[1,5-a]pyridin-7-yl}-N-{[2-(difluoromethoxy)phenyl]methyl}-2-ethoxypyridine-3-carboxamide] | 20 to 200 |  | > 200 |  | 
14 | COc1ncc(-c2ccn3nc(N)nc3c2)cc1C(=O)NC(C)c1cccc(OC(F)(F)F)c1 (single isomer, unassigned) [Example 36-2, 5-{2-Amino-[1,2,4]triazolo[1,5-a]pyridin-7-yl}-2-methoxy-N-{1-[3-(trifluoromethoxy)phenyl]ethyl}pyridine-3-carboxamide] |  |  | > 200 |  | IC50 [1, 8]: > 200 nM
15 | COc1nc(C)c(-c2ccn3nc(N)nc3c2)cc1C(=O)NCc1cccc(F)c1OC1C[C@@H](C)O[C@@H](C)C1 (stereo partly drawn) [Example 356, 5-(2-amino-[1,2,4]triazolo[1,5-a]pyridin-7-yl)-N-(2-(((2R,6S)-2,6-dimethyltetrahydro-2H-pyran-4-yl)oxy)-3-fluorobenzyl)-2-methoxy-6-methylnicotinamide] | 20 to 200 |  | > 200 | < 20 | 
16 | COc1ncc(-c2ccn3nc(N)nc3c2)cc1C(=O)NCc1ccccc1SC(C)C [Example 143, 5-{2-amino-[1,2,4]triazolo[1,5-a]pyridin-7-yl}-2-methoxy-N-{[2-(propan-2-ylsulfanyl)phenyl]methyl}pyridine-3-carboxamide] |  |  |  | < 20 | IC50 [2, 7]: < 20 nM
17 | Cc1ncc(-c2ccn3nc(N)nc3c2)cc1C(=O)NCc1cc(F)ccc1OCC(F)(F)F [Example 309, 5-(2-amino-[1,2,4]triazolo[1,5-a]pyridin-7-yl)-N-(5-fluoro-2-(2,2,2-trifluoroethoxy)benzyl)-2-methylnicotinamide] |  |  | > 200 | < 20 | 
18 | COc1cnc(-c2ccn3nc(N)nc3c2)cc1C(=O)NCc1cc(C(F)(F)F)ccc1F [Example 391, 2-(2-amino-[1,2,4]triazolo[1,5-a]pyridin-7-yl)-N-(2-fluoro-5-(trifluoromethyl)benzyl)-5-methoxyisonicotinamide] |  |  | > 200 |  | IC50 [1, 8]: > 200 nM
19 | COc1ncc(-c2ccn3nc(N)nc3c2)cc1C(=O)NCc1c(F)cc(F)cc1OCC1CCCC1 [Example 122, 5-{2-amino-[1,2,4]triazolo[1,5-a]pyridin-7-yl}-N-{[2-(cyclopentylmethoxy)-4,6-difluorophenyl]methyl}-2-methoxypyridine-3-carboxamide] |  | 20 to 200 |  | < 20 | 
20 | Cc1ncc(-c2ccn3nc(N)nc3c2)cc1C(=O)NCc1c(F)cccc1OCC(F)(F)F [Example 306, 5-(2-amino-[1,2,4]triazolo[1,5-a]pyridin-7-yl)-N-(2-fluoro-6-(2,2,2-trifluoroethoxy)benzyl)-2-methylnicotinamide] | 20 to 200 | 20 to 200 |  |  | 
21 | COc1nc(C)c(-c2ccn3nc(N)nc3c2)cc1C(=O)NCc1cc(F)cc(F)c1O[C@@H]1CCN(C)C1 [Example 359, (R)-5-(2-amino-[1,2,4]-triazolo[1,5-a]pyridin-7-yl)-N-(3,5-difluoro-2-((1-methylpyrrolidin-3-yl)oxy)benzyl)-2-methoxy-6-methylnicotinamide] | 20 to 200 |  | > 200 |  | 
